Results published in BindingDB's records for patent US10781211 (LUNDBECK LA JOLLA RESEARCH CENTER, INC., 2020).

These molecules were tested against T1, Monoglyceride lipase (Homo sapiens, UniProt Q99685) (assay: In Vitro Competitive Activity-Based Protein Profiling Assay).
T1 sequence (Q99685 whole entry): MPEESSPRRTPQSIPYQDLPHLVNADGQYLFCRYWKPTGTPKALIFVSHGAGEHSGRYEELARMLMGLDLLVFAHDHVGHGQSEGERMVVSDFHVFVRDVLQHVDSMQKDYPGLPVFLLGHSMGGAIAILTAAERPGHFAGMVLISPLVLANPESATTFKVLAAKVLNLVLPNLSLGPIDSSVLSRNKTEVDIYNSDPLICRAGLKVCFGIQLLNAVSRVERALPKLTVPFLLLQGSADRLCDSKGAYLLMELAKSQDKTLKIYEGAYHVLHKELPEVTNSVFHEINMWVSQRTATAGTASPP
Method: Human: Proteomes (human prefrontal cortex or cell membrane fractions) (50 μL, 1.0-2.0 mg/mL total protein concentration) were preincubated with varying concentrations of inhibitors at 37° C. After 30 min, FP-Rh or JW912 (1.0 μL, 50 μM in DMSO) was added and the mixture was incubated for another 30 min at room temperature. Reactions were quenched with SDS loading buffer (15 μL-4X) and run on SDS-PAGE.

With CC1CCCN(c2cc(CN3CCCC34CCN(C(=O)OC(C(F)(F)F)C(F)(F)F)CC4)cc(C(F)(F)F)c2)C1 (configuration not stated) [US10781211, Example 221] as the molecule, how does the IC50 read?
Its IC50 is under 100 nM.

O=C(OC(C(F)(F)F)C(F)(F)F)N1CCC2(CCCN2Cc2cc(N3CCCC3)cc(C(F)(F)F)c2)CC1 [US10781211, Example 203] was tested. Which IC50 did it give?
Its IC50 is under 100 nM.

For O=C(OC(C(F)(F)F)C(F)(F)F)N1CCC2(CCCN2Cc2cc(F)cc(N3CCCCC3)c2)CC1 [US10781211, Example 236], which IC50 is on record?
The IC50 was under 100 nM.

Which IC50 does the source give for O=C(OC(C(F)(F)F)C(F)(F)F)N1CCC2(CCN(Cc3cc(N4CCOCC4)cc(C(F)(F)F)c3)C2)CC1 [US10781211, Example 277] here?
The IC50 was under 100 nM.

For O=C(OC(C(F)(F)F)C(F)(F)F)N1CCC2(CCN(Cc3cc(Cl)cc(N4CCCCC4)c3)C2)CC1 [US10781211, Example 232], which IC50 is on record?
The IC50 was under 100 nM.

Which IC50 does the source give for O=C(OC(C(F)(F)F)C(F)(F)F)N1CCC2(CCN(Cc3cc(CN4CCCCC4)cc(C(F)(F)F)c3)C2)CC1 [US10781211, Example 245] here?
The IC50 was under 100 nM.

Which IC50 does the source give for CC1CN(c2cc(CN3CCC4(CCN(C(=O)OC(C(F)(F)F)C(F)(F)F)CC4)C3)cc(C(F)(F)F)c2)CCO1 (configuration not stated) [US10781211, Example 252] here?
Its IC50 is under 100 nM.

For CC1CCN(c2cc(CN3CCC4(CCN(C(=O)OC(C(F)(F)F)C(F)(F)F)CC4)C3)cc(C(F)(F)F)c2)C1 (configuration not stated) [US10781211, Example 229], which IC50 is on record?
The IC50 was under 100 nM.

With O=C(OC(C(F)(F)F)C(F)(F)F)N1CCC2(CCN(Cc3ccc(N4CCCCC4)c(C(F)(F)F)c3)C2)CC1 [US10781211, Example 228] as the molecule, how does the IC50 read?
The IC50 was under 100 nM.

For CC1CCN(c2cc(C(F)(F)F)ccc2CN2CCC3(CCN(C(=O)OC(C(F)(F)F)C(F)(F)F)CC3)C2)C1 (configuration not stated) [US10781211, Example 219], which IC50 is on record?
The IC50 was under 100 nM.

How did the IC50 turn out when CC1CCCN(c2cc(C(F)(F)F)ccc2CN2CCC3(CCN(C(=O)OC(C(F)(F)F)C(F)(F)F)CC3)C2)C1 (configuration not stated) [US10781211, Example 216] was run?
The IC50 was under 100 nM.

Which IC50 does the source give for O=C(OC(C(F)(F)F)C(F)(F)F)N1CCC2(CCCN2Cc2cc(N3CCOCC3)cc(C(F)(F)F)c2)CC1 [US10781211, Example 204] here?
Its IC50 is under 100 nM.

O=C(OC(C(F)(F)F)C(F)(F)F)N1CCC2(CCCN2Cc2cc(CN3CCCC3)cc(OC(F)(F)F)c2)CC1 [US10781211, Example 270] was tested. Which IC50 did it give?
The IC50 was under 100 nM.

Which IC50 does the source give for O=C(OC(C(F)(F)F)C(F)(F)F)N1CCC2(CCN(Cc3ccc(C(F)(F)F)c(N4CCCCC4)c3)C2)CC1 [US10781211, Example 234] here?
Its IC50 is under 100 nM.

With O=C(OC(C(F)(F)F)C(F)(F)F)N1CCC2(CCCN2Cc2cc(N3CCCCC3)cc(S(F)(F)(F)(F)F)c2)CC1 [US10781211, Example 263] as the molecule, how does the IC50 read?
The IC50 was under 100 nM.

Which IC50 does the source give for O=C(OC(C(F)(F)F)C(F)(F)F)N1CCC2(CCN(Cc3cc(F)cc(N4CCCCC4)c3)C2)CC1 [US10781211, Example 233] here?
Its IC50 is under 100 nM.

Which IC50 does the source give for O=C(OC(C(F)(F)F)C(F)(F)F)N1CCC2(CCN(Cc3ccc(S(F)(F)(F)(F)F)cc3N3CCCCC3)C2)CC1 [US10781211, Example 241] here?
The IC50 was under 100 nM.

How did the IC50 turn out when O=C(OC(C(F)(F)F)C(F)(F)F)N1CCC2(CCCN2Cc2cc(CN3CCCCC3)cc(OC(F)(F)F)c2)CC1 [US10781211, Example 269] was run?
Its IC50 is under 100 nM.

For O=C(OC(C(F)(F)F)C(F)(F)F)N1CCC2(CCCN2Cc2cc(CN3CCCCC3)cc(C(F)(F)F)c2)CC1 [US10781211, Example 244], which IC50 is on record?
Its IC50 is under 100 nM.

With O=C(OC(C(F)(F)F)C(F)(F)F)N1CCC2(CCN(Cc3ccc(C(F)(F)F)cc3N3CCCC3)C2)CC1 [US10781211, Example 201] as the molecule, how does the IC50 read?
The IC50 was under 100 nM.

O=C(OC(C(F)(F)F)C(F)(F)F)N1CCC2(CCN(Cc3cc(N4CCCC4)cc(C(F)(F)F)c3)C2)CC1 [US10781211, Example 202] was tested. Which IC50 did it give?
The IC50 was under 100 nM.

Which IC50 does the source give for O=C(OC(C(F)(F)F)C(F)(F)F)N1CCC2(CCCN2Cc2ccc(C(F)(F)F)cc2CN2CCCC2)CC1 [US10781211, Example 262] here?
The IC50 was under 100 nM.
